Data from patent US12336986B2, “Treatment and prevention of ocular neurodegenerative disorder” (The Jackson Laboratory, priority 2015, dated 2025).
“Also recorded” adds a separate entry of the source.

Experiments:
D2 retinas [1] = assay: Retinal NFL and IPL thinning (Nissl staining) in D2 mice; assay type: in vivo, mouse; settings: NAM or pyruvate in drinking water
Description: For Nissl staining, frozen sections were warmed to room temperature, placed in 1:1 alcohol:chloroform ON, and rehydrated through serial alcohol gradient. Slides were washed once in distilled water and stained for 15 mins in 0.1% cresyl violet in distilled water before being differentiated in 95% alcohol, dehydrated in 100% alcohol and cleared in xylene. Slides were prepared as above. Nissl stained retinal sections were imaged using a Nikon Eclipse E200.

D2 retinas [2] = assay: Lipid droplet formation in inner retina (Oil Red O staining); assay type: in vivo, mouse; settings: D2 mice, 12-month, NAM 550 mg/kg/day
Description: For Oil Red O staining, slides were warmed to room temperature, washed quickly in 60% isopropanol, incubated at RT in Oil Red O and Haematoxylin for 15 mins, washed in 60% isopropanol again, mounted and coverslipped. Oil Red O stained retinal sections were imaged using a Nikon Eclipse […].

γH2AX = assay: DNA damage (γH2AX staining) in D2 retinas; assay type: in vivo, mouse; settings: D2 mice, early glaucoma, NAM 550 mg/kg/day
Description: (§1) For immunofluorescence staining, mice were euthanized by cervical dislocation, their eyes enucleated and placed in 4% PFA ON. Retinas were dissected and flat-mounted onto slides, permeabilized with 0.1% Triton-X for 15 mins, blocked with 2% BSA in PBS and stained ON at RT in primary antibody (see below for list of antibodies).
(§2) After primary antibody incubation, retinas were washed 5 times in PBS, stained for 4 hrs at RT with secondary antibody. Slides were then washed a further 5 times with PBS, stained with DAPI for 15 mins, mounted with fluoromount, coverslipped and sealed with nail-polish.
(§3) For retinal sections, eyes were cryoprotected in 30% sucrose ON, frozen in OCT and cryosectioned at 18 μm. Slides were warmed to room temperature and the procedure above was followed. Retinas were imaged on a Zeiss AxioObserver for low resolution counts. Retinal sections were imaged on a Leica SP8 far higher resolution images.

PARP = PARP activation (pan-PARP immunostaining) in D2 retinas; assay type: in vivo, mouse; settings: NAM 550 mg/kg/day
Description: as §1, §2, §3

[3] = tested on: retinal ganglion cells (RGCs); assay: RNA-sequencing of FAC sorted RGCs, differential gene expression; assay type: in vivo, mouse; settings: for RGC gene expression changes (RNA-seq): D2 mice, NAM 550 mg/kg/day in drinking water from 6-month, 9-month RGCs
Description: Prior to cell collection, all surfaces and volumes were cleaned with 70% ethanol and RNaseZap (ThermoFisher Scientific) solution followed by dH2O. Mice were euthanized, eyes enucleated and placed immediately into ice-cold HBSS. Retinas were dissected from the eyes (4- or 9-month of age, no axon degeneration confirmed by PPD staining, data not shown) in HBSS on ice and placed directly into 100 μL, of a custom HBSS (Gibco), dispase (5 U/mL) (Stemcell Technologies), DNase 1 (2000 U/mL) (Worthington Biochemical) and SUPERase (1 U/μL) (ThermoFisher Scientific) solution. All retinas were from eyes that had no glaucomatous axon degeneration by PPD staining and analysis (see optic nerve assessment below). Retinas were incubated for 20 mins at 37° C. and shaken at 350 RPM in an Eppendorf Thermomixer R followed by gentle trituration using a 200 μL pipette. Samples were blocked in 2% BSA, SUPERase (1 U/μL) in HBSS, and stained with conjugated antibodies against Cd11b, Cd11c, Cd34, Cd45.2, GFAP, Thy1.2 as well as DAPI. This cocktail allowed other retina cell types to be accurately removed during FACS.
FACS was performed on a FACSAria (BD Biosciences). Thy1.2^+ (and negative for all other markers) RGCs were sorted into 300 μL buffer RLT+1% β-ME, vortexed and frozen at −80° C. until further processing.
[…] RGC samples were defrosted on ice and homogenized by syringe in RLT Buffer (total volume 300 μL). Total RNA was isolated using RNeasy micro kits according to manufacturer's protocols (Qiagen) including the optional DNase treatment step, and quality was assessed using an Agilent 2100 Bioanalyzer. The concentration was determined using Ribogreen Assay (Invitrogen). […]
Library size produced was analyzed using qPCR using the Library Quantitation kit/Illumina GA/ABI Prism (Kapa Biosystems). Libraries were barcoded, pooled, and sequenced 6 samples per lane on a HiSeq 2500 sequencer (illumina) giving a depth of 30-35 million reads per sample.
Samples were subjected to quality control analysis by a custom quality control python script. Reads with 70% of their bases having a base quality score ≥30 were retained for further analysis. Read alignment was performed using TopHat v 2.0.7 (Kim et al., Genome Biol 14, R36, 2013) and expression estimation was performed using HTSeq (Anders et al., Bioinformatics 31, 166-169, 2015) with supplied annotations and default parameters against the DBA/2J mouse genome (build-mm10). […]
Differential gene expression analysis between groups was performed using edgeR v 3.10.5 (Robinson et al., Bioinformatics 26, 139-140, 2010) following, batch correction using RUVSeq, the removal of outlier samples and lowly expressed genes by removing genes with less than five reads in more than two samples. […]

C57BL/6J (B6) mice = assay: Soluble murine TNFα intravitreal injection model of RGC death; assay type: in vivo, mouse; settings: NAM 550 mg/kg/day, 12-week post-TNFα administration
Description: To induce delayed retinal ganglion cell degeneration, soluble murine TNFα (1 ng/μL) was intravitrally injected as previously described (Nakazawa et al., J Neurosci 26, 12633-12641, 2006). […] Mice we sacrificed at 12-week and RGC counts performed.

dorsal root ganglion = settings: U.S. Pat. No. 7,776,326; cited from earlier work
RGCs = settings: U.S. Pat. No. 7,776,326; injected intravitreally; cited from earlier work
[4] = RGCs, q<0.05, NAM 550 mg/kg/day

NC(=O)c1cccnc1 [NAM, nicotinamide]
retinal NFL and IPL thinning (Nissl) (D2 retinas [1]): prevented; also recorded: protects
lipid droplet formation in the inner retina (D2 retinas [2]): prevented; also recorded: prevents lipid droplet formation
DNA damage (γH2AX staining) (γH2AX): limited levels of DNA damage; also recorded: prevents DNA damage
PARP activation / expression (PARP): decreased PARP activation; also recorded: prevents PARP activation
RGC gene expression changes (RNA-seq) [3]: prevented even the earliest molecular signs of glaucoma in the majority of treated eyes; also recorded: prevented the vast majority of age-related gene expression changes; also recorded: returned to normal; also recorded: molecularly similar to controls; also recorded: molecularly similar to both young and age-matched no glaucoma control RCGs; also recorded: prevents transcriptome imbalances and OXPHOS imbalances; also recorded: prevents age- and disease-related gene expression changes
RGC gene expression changes (RNA-seq) ([3]; listed as nicotinamide): more closely molecularly matched to young control mice
number of DE genes, 4-month D2-Gpnmb+ vs. NAM [3, 4]: 83
number of DE genes, 9-month D2-Gpnmb+ vs. NAM [3, 4]: 4437
loss of PERG amplitude in TNFα injected eyes (C57BL/6J (B6) mice): protected against; also recorded: prevents
soma loss / cell loss in TNFα injected eyes (C57BL/6J (B6) mice): protected against; also recorded: prevents
axonal degeneration after axotomy (dorsal root ganglion): did not work to diminish axonal degeneration
axon degeneration in RGCs after intravitreal injection (RGCs): not protective against axon degeneration in RGCs; also recorded: did not show any difference from the control animals
